{"source": "patent US20200078379A1", "about": "“DEFEROXAMINE DERIVATIVES AS MEDICAMENTS” (BIOTECHNOLOGICKY USTAV AV CR, V.V.I., priority 2017, published 2020)", "key": {"[1]": {"system": "PaTu 8902 cells", "assay": "crystal violet assay, cellular viability", "assay_type": "cell-based", "conditions": "PaTu 8902, 48 hours"}, "[2]": {"system": "pancreatic cell line BxPC3", "assay": "dose-effect relationship of drugs and mixtures, crystal violet assay, Median-Effect / Combination index", "assay_type": "cell-based", "procedure": "(§1) The potentiation of cytotoxic effect of compound 2 in combination with several cytostatics was evaluated. The dose-effect relationship of individual drugs and mixtures of compound 2 with paclitaxel, cis Pt (cis-platin), doxorubicin and fluorouracil was determined on human mammary gland cancer cell line MDA-MB-231 and pancreatic cell line BxPC3 by means of crystal violet assay. The linearized Median-Effect Plot of dose response line provided both parameters (IC50; trend line m(slope) value) of Median-Effect Equation for individual and combination treatment [ref: Theoretical basis, experimental design, and computerized simulation of synergism and antagonism in drug combination studies; Ting-Chao Chou: Pharmacol Rev. 58(3), 2006, 621-81; Erratum in Pharmacol Rev. 2007; 59(1), 124]:\n(§2) Potentiation of combination effect of compound 2 was expressed for concentrations IC50, IC75, IC90, IC95 by calculation of Combination index (CI) applying Combination Index Theorem for mutually exclusive drugs. Overall CI was expressed by means of weighted average of IC50, IC75, IC90, IC95 [ref: Quantitative analysis of dose-effect relationships: the combined effects of multiple drugs or enzyme inhibitors; Ting-Chao Chou, Paul Talalay: Advances in Enzyme Regulation, Volume 22, 1984, Pages 27-55]: […]"}, "[3]": {"system": "human mammary gland cancer cell line MDA-MB-231", "assay": "dose-effect relationship of drugs and mixtures, crystal violet assay, Median-Effect / Combination index", "assay_type": "cell-based", "conditions": "MDA-MB-231, crystal violet, 48 hours", "procedure": "as §1, §2"}, "[4]": {"system": "MCF7 cells", "assay": "OCR and ECAR, Seahorse instrument", "assay_type": "cell-based, human", "conditions": "1 hour incubation", "description": "Application of compound 2 leads to marked inhibition of cellular respiration as evidenced by two independent methods: the Oxygraph instrument (Rohlenova, K., Sachaphibulkij, K., Stursa, J., Bezawork-Geleta, A., Blecha, J., Endaya, B., Werner, L., Cerny, J., Zobalova, R., Goodwin, J., Spacek, T., Alizadeh, P. E., Yan, B., Nguyen, M. N., Vondrusova, M., Sobol, M., Jezek, P., Hozak, P., Truksa, J., Rohlena, J., Dong, L. F., & Neuzil, J. (2017) Selective Disruption of Respiratory Supercomplexes as a New Strategy to Suppress Her2high Breast Cancer. Antioxid. Redox. Signal., 26, 84-103) (Table 6) and Seahorse instrument (Table 7). For Seahorse analysis, 20.000 or 30.000 cells were seeded in 96 well plates and incubated with compound 2 for 1 hour. Afterwards, oxygen consumption rate (OCR) and extracellular acidification rate (ECAR) were measured in three cycles of 3 minutes preceded by 3 minutes of mixing, using a Seahorse XFe96 analyzer (Agilent). Results express the mean values of the three cycles."}, "[5]": {"system": "BxPC-3 cells", "assay": "crystal violet assay, cellular viability", "assay_type": "cell-based", "conditions": "Homo sapiens, BxPC-3, 48 hours"}, "[6]": {"system": "AsPC-1 cells", "assay": "crystal violet assay, cellular viability", "assay_type": "cell-based", "conditions": "Homo sapiens, ASPC1, AsPC-1, 48 hours"}, "[7]": {"system": "MDA-MB-231 cells", "assay": "cellular proliferation, continuous confluence monitoring via Juli FL", "assay_type": "cell-based, human", "conditions": "for Final confluence: MDA-MB-231, 48 hrs", "procedure": "We also tested the ability of compound 2 to suppress proliferation of cancer cells by an alternative approach via the real time monitoring with a cellular analyser Juli FL. In brief, MCF7 or MDA-MB-231 cells were seeded in a 6-well plate the day before to reach approximately 20% confluence on the following day. Next day, the camera of the instrument was focused on a particular field with approximately 20% confluence and cells were continuously monitored, recording the confluence and visual appearance every 30 minutes for 48 hrs. Values were then expressed either as simple confluence at the end of the experiment or as slope of the line representing the confluence during a given period of time (Table 10). It is clear from the collected data that, in agreement with Xcelligence data, we do see inhibition of proliferation at 1 μM, complete block of proliferation at 2 μM and a cytotoxic effect at 5 μM. The effect is less pronounced in this case as dead cells remain in the monitored field and some are still counted as living cells by the software."}, "[8]": {"system": "T47D cells", "assay": "crystal violet assay, cellular viability", "assay_type": "cell-based", "conditions": "for IC50: Homo sapiens"}, "[9]": {"system": "non malignant cells (BJ)", "assay": "cellular proliferation in real time, Xcelligence technology", "assay_type": "cell-based, human", "procedure": "The ability of compound 2 to affect the proliferation and cell death induction in real time was monitored by the Xcelligence technology that detects changes in electrical impedance related to the cell number. In brief, special 16-well e-plates containing gold electrodes were filled with medium, blank values were recorded, and then 5.000 cells per well were seeded in the plate and let to attach for 2 hours, followed by the addition of compounds. The electrical impedance was then monitored over time in real-time every 15 minutes. In this case a line is drawn that reflects the cell number over time. […] We have seen a clear inhibition of proliferation with compound 2 at 1 μM, complete block of proliferation at 2 μM concentration, while the cytotoxic effect is seen at 5 μM (Table 9)."}, "[10]": {"system": "BT474 cells", "assay": "crystal violet assay, cellular viability", "assay_type": "cell-based", "conditions": "for IC50: Homo sapiens, BT-474"}}, "note": "Read-outs that look alike come from different tables or passages of the source.", "data": [{"smiles": "CC(=O)N(O)CCCCCNC(=O)CCC(=O)N(O)CCCCCNC(=O)CCC(=O)N(O)CCCCCN(CCCCCCCCCC[P+](c1ccccc1)(c1ccccc1)c1ccccc1)CCCCCCCCCC[P+](c1ccccc1)(c1ccccc1)c1ccccc1.[Cl-].[Cl-]", "note": "[Compound 2, Triphenyl(3,14,25-trihydroxy-2,10,13,21,24-pentaoxo-31-(10-(triphenylphosphonio)decyl)-3,9,14,20,25,31-hexaazahentetracontan-41-yl)phosphonium chloride]", "values": [{"measurement": "IC50", "setting": "[1]", "result": 5.5, "unit": "µM"}, {"measurement": "Median-Effect Plot parameter m (slope)", "setting": "[2]; 48 hours", "result": 1.57}, {"measurement": "IC50", "setting": "[2]; Homo sapiens, BXPC-3, 48 h, read-out: Median-Effect Plot parameter IC50", "result": 4.5, "unit": "µM"}, {"measurement": "IC50", "setting": "[3]; Homo sapiens, Chou-Talalay method, read-out: Median-Effect Plot parameter IC50", "result": 5.89, "unit": "µM"}, {"measurement": "Median-Effect Plot parameter m (slope)", "setting": "[3]", "result": 1.2778}, {"measurement": "Oxygen consumption rate (OCR)", "setting": "[4]; MCF7, 5 μM", "result": "15.4 pmol*min^−1 10.000 cells^−1"}, {"measurement": "extracellular acidification rate (ECAR)", "setting": "[4]; MCF7, 5 μM", "result": "9.69 mpH*min^−1 10.000 cells^−1"}, {"measurement": "Oxygen consumption rate (OCR)", "setting": "[4]; MCF7, 10 μM", "result": "9.6 pmol*min^−1 10.000 cells^−1"}, {"measurement": "extracellular acidification rate (ECAR)", "setting": "[4]; MCF7, 10 μM", "result": "8.2 mpH*min^−1 10.000 cells^−1"}, {"measurement": "IC50", "setting": "[5]", "result": 1.7, "unit": "µM"}, {"measurement": "IC50", "setting": "[6]", "result": 2.6, "unit": "µM"}, {"measurement": "slope of the confluence line", "setting": "[7]; MDA-MB-231, 0-22 h, 1 μM", "result": "0.786 (0.010)"}, {"measurement": "slope of the confluence line", "setting": "[7]; MDA-MB-231, 0-22 h, 2 μM", "result": "0.470 (0.006)"}, {"measurement": "slope of the confluence line", "setting": "[7]; MDA-MB-231, 0-22 h, 5 μM", "result": "0.454 (0.014)"}, {"measurement": "slope of the confluence line", "setting": "[7]; MDA-MB-231, 22-48 h, 1 μM", "result": "0.934 (0.014)"}, {"measurement": "slope of the confluence line", "setting": "[7]; MDA-MB-231, 22-48 h, 2 μM", "result": "0.114 (0.011)"}, {"measurement": "slope of the confluence line", "setting": "[7]; MDA-MB-231, 22-48 h, 5 μM", "result": "−0.057 (0.013)"}, {"measurement": "Final confluence", "setting": "[7]; 1 μM", "result": "65.15 (3.3)"}, {"measurement": "Final confluence", "setting": "[7]; 2 μM", "result": "46.58 (2.7)"}, {"measurement": "Final confluence", "setting": "[7]; 5 μM", "result": "25.87 (2.4)"}, {"measurement": "Selectivity index (IC50 non-malignant/IC50 malignant)", "setting": "[8]; BJ vs T47D, 48 hours", "result": 4.77}, {"measurement": "IC50", "setting": "[8]; T47D Parental, read-out: IC50 crystal violet", "result": 3, "unit": "µM"}, {"measurement": "IC50", "setting": "[8]; T47D, 48 hours, crystal violet, read-out: IC50 cellular viability", "result": 3, "unit": "µM"}, {"measurement": "slope of the line (relative number of cells in relation to time)", "setting": "[9]; 0-15 h, 1 μM", "result": 1.14}, {"measurement": "slope of the line (relative number of cells in relation to time)", "setting": "[9]; 0-15 h, 2 μM", "result": 1.07}, {"measurement": "slope of the line (relative number of cells in relation to time)", "setting": "[9]; 0-15 h, 5 μM", "result": 0.83}, {"measurement": "slope of the line (relative number of cells in relation to time)", "setting": "[9]; 0-36 h, 1 μM", "result": 1.08}, {"measurement": "slope of the line (relative number of cells in relation to time)", "setting": "[9]; 0-36 h, 2 μM", "result": 0.90}, {"measurement": "slope of the line (relative number of cells in relation to time)", "setting": "[9]; 0-36 h, 5 μM", "result": 0.47}, {"measurement": "effect on cellular proliferation of non-malignant BJ cells, in words", "setting": "[9]; Xcelligence, 5 μM", "result": "very mild and statistically non-significant effect"}, {"measurement": "Selectivity index (IC50 non-malignant/IC50 malignant)", "setting": "[10]; BJ vs BT474, 48 hours", "result": 4.33}, {"measurement": "IC50", "setting": "[10]; BT474, 48 hours, crystal violet, read-out: IC50 cellular viability", "result": 3.3, "unit": "µM"}, {"measurement": "IC50", "setting": "[10]; BT474 Parental, read-out: IC50 crystal violet", "result": 3.3, "unit": "µM"}]}]}
